Test results published in ChEMBL document CHEMBL4819019, “Design, synthesis, antibacterial activity and toxicity of novel quaternary ammonium compounds based on pyridoxine and fatty acids” (Eur J Med Chem, 2021).
In brackets after ≈: the same amount, converted by molar mass.

Assays:
[1] = test system: Bacillus subtilis; experiment: Antibacterial activity against Bacillus subtilis 168 measured after 24 hrs by broth microdilution method; type: functional
[2] = Cytotoxicity against human skin fibroblasts assessed as cell viability measured after 72 hrs by MTT assay; type: cell-based, Fibroblast
[3] = Cytotoxicity against human mesenchymal stem cells assessed as cell viability measured after 72 hrs by MTT assay; type: cell-based
[4] = test system: Escherichia coli; experiment: Antibacterial activity against Escherichia coli MG 1655 measured after 24 hrs by broth microdilution method; type: functional
[5] = Cytotoxicity against human HEK293 cells assessed as cell viability measured after 72 hrs by MTT assay; type: cell-based
[6] = test system: Micrococcus luteus; experiment: Antibacterial activity against Micrococcus luteus clinical isolate measured after 24 hrs by broth microdilution method; type: functional
[7] = Lipophilicity, logP of the compound; type: physicochemical; conditions: octanol/water
[8] = Acute toxicity in po dosed C57BL/6CBA mouse measured upto 7 days; type: organism-based; conditions: in vivo, time <=7 day
[9] = test system: Staphylococcus aureus; experiment: Antibacterial activity against Staphylococcus aureus ATCC 29213 measured after 24 hrs by broth microdilution method; type: functional
[10] = test system: Pseudomonas aeruginosa; experiment: Antibacterial activity against Pseudomonas aeruginosa ATCC 27853 measured after 24 hrs by broth microdilution method; type: functional
[11] = Genotoxicity in Salmonella typhimurium TA1535/pSK1002 assessed as DNA-damage activity by measuring beta-galactosidase activity at 15 ug/ml measured by SOS-chromotest relative to solvent control; type: toxicity; conditions: salmonella enterica subsp. enterica serovar typhimurium; dose 15 µg/ml
[12] = test system: Staphylococcus aureus; experiment: Antibacterial activity against clinical isolate methicillin-resistant Staphylococcus aureus 713 measured after 24 hrs by broth microdilution method; type: functional
[13] = test system: Staphylococcus intermedius; experiment: Antibacterial activity against clinical isolate methicillin-resistant Staphylococcus intermedius 1143 measured after 24 hrs by broth microdilution method; type: functional
[14] = test system: Proteus sp.; experiment: Antibacterial activity against clinical isolate Proteus sp. 17 measured after 24 hrs by broth microdilution method; type: functional; conditions: Proteus sp. (in: enterobacteria)
[15] = Genotoxicity in Salmonella typhimurium TA98 assessed as number of revertant by Ames spot test relative to solvent control; type: toxicity; conditions: salmonella enterica subsp. enterica serovar typhimurium
[16] = Genotoxicity in Salmonella typhimurium TA1535 assessed as number of revertant by Ames spot test relative to solvent control; type: toxicity; conditions: salmonella enterica subsp. enterica serovar typhimurium
[17] = test system: Moraxella; experiment: Antibacterial activity against clinical isolate Moraxella 765 measured after 24 hrs by broth microdilution method; type: functional
[18] = Genotoxicity in Salmonella typhimurium TA1535/pSK1002 assessed as DNA-damage activity by measuring beta-galactosidase activity at 750 ug/ml measured by SOS-chromotest relative to solvent control; type: toxicity; conditions: salmonella enterica subsp. enterica serovar typhimurium; dose 750 µg/ml
[19] = test system: Staphylococcus ureilyticus; experiment: Antibacterial activity against clinical isolate Staphylococcus ureilyticus 1972 measured after 24 hrs by broth microdilution method; type: functional
[20] = test system: Staphylococcus aureus; experiment: Antibacterial activity against clinical isolate methicillin-resistant Staphylococcus aureus 983 measured after 24 hrs by broth microdilution method; type: functional
[21] = test system: Klebsiella sp.; experiment: Antibacterial activity against clinical isolate Klebsiella sp. 11 measured after 24 hrs by broth microdilution method; type: functional
[22] = test system: Klebsiella pneumoniae; experiment: Antibacterial activity against clinical isolate Klebsiella pneumoniae 1813 measured after 24 hrs by broth microdilution method; type: functional
[23] = test system: Staphylococcus aureus; experiment: Antibacterial activity against clinical isolate methicillin-resistant Staphylococcus aureus 1131 measured after 24 hrs by broth microdilution method; type: functional
[24] = test system: Staphylococcus aureus; experiment: Antibacterial activity against clinical isolate methicillin-resistant Staphylococcus aureus 1065 measured after 24 hrs by broth microdilution method; type: functional
[25] = Genotoxicity in Salmonella typhimurium TA1537 assessed as number of revertant by Ames spot test relative to solvent control; type: toxicity; conditions: salmonella enterica subsp. enterica serovar typhimurium
[26] = test system: Enterococcus faecalis; experiment: Antibacterial activity against clinical isolate Enterococcus faecalis 23 measured after 24 hrs by broth microdilution method; type: functional
[27] = Genotoxicity in Salmonella typhimurium TA1535/pSK1002 assessed as DNA-damage activity by measuring beta-galactosidase activity at 7.5 ug/ml measured by SOS-chromotest relative to solvent control; type: toxicity; conditions: salmonella enterica subsp. enterica serovar typhimurium; dose 7.5 µg/ml
[28] = test system: Pseudomonas sp.; experiment: Antibacterial activity against clinical isolate Pseudomonas sp. 5 measured after 24 hrs by broth microdilution method; type: functional
[29] = Genotoxicity in Salmonella typhimurium TA1535/pSK1002 assessed as DNA-damage activity by measuring beta-galactosidase activity at 150 ug/ml measured by SOS-chromotest relative to solvent control; type: toxicity; conditions: salmonella enterica subsp. enterica serovar typhimurium; dose 150 µg/ml
[30] = test system: Acinetobacter sp.; experiment: Antibacterial activity against clinical isolate Acinetobacter sp. 3 measured after 24 hrs by broth microdilution method; type: functional
[31] = test system: Enterococcus faecalis; experiment: Antibacterial activity against clinical isolate Enterococcus faecalis 3063 measured after 24 hrs by broth microdilution method; type: functional
[32] = test system: Escherichia coli; experiment: Antibacterial activity against clinical isolate Escherichia coli 718 measured after 24 hrs by broth microdilution method; type: functional
[33] = test system: Pseudomonas aeruginosa; experiment: Antibacterial activity against clinical isolate Pseudomonas aeruginosa 1945 measured after 24 hrs by broth microdilution method; type: functional
[34] = test system: Serratia marcescens; experiment: Antibacterial activity against clinical isolate Serratia marcescens 1966 measured after 24 hrs by broth microdilution method; type: functional
[35] = test system: Staphylococcus aureus; experiment: Antibacterial activity against clinical isolate Staphylococcus aureus 25 measured after 24 hrs by broth microdilution method; type: functional
[36] = test system: Staphylococcus aureus; experiment: Antibacterial activity against clinical isolate methicillin-resistant Staphylococcus aureus 1053 measured after 24 hrs by broth microdilution method; type: functional
[37] = test system: Staphylococcus intermedius; experiment: Antibacterial activity against clinical isolate methicillin-resistant Staphylococcus intermedius 1061 measured after 24 hrs by broth microdilution method; type: functional
[38] = Genotoxicity in Salmonella typhimurium TA100 assessed as number of revertant by Ames spot test relative to solvent control; type: toxicity; conditions: salmonella enterica subsp. enterica serovar typhimurium
[39] = Genotoxicity in Salmonella typhimurium TA1535/pSK1002 assessed as DNA-damage activity by measuring beta-galactosidase activity at 75 ug/ml measured by SOS-chromotest relative to solvent control; type: toxicity; conditions: salmonella enterica subsp. enterica serovar typhimurium; dose 75 µg/ml

SMILES | MIC [1] | CC50 at 72 h [2] | CC50 at 72 h [3] | MIC [4] | CC50 at 72 h [5] | MIC [6] | logP [7] | MIC [9] | MIC [10] | Ratio [11] | MIC [12] | MIC [13] | MIC [14] | Ratio [15] | Ratio [16] | MIC [17] | Ratio [18] | MIC [19] | MIC [20] | MIC [21] | other results
[H]/N=C(\N/C(=N/[H])NCCCCCCNC(=N)NC(=N)Nc1ccc(Cl)cc1)Nc1ccc(Cl)cc1 [CHLORHEXIDINE] | 1 µg/mL (≈ 1.98 µM) | 6.32 µg/mL (≈ 12.5 µM) | 5.12 µg/mL (≈ 10.1 µM) | 1 µg/mL (≈ 1.98 µM) | 7.28 µg/mL (≈ 14.4 µM) | 0.5 µg/mL (≈ 0.989 µM) | 4.51 | 2 µg/mL (≈ 3.96 µM) | 4 µg/mL (≈ 7.91 µM) |  |  |  |  |  |  |  |  |  |  |  | LD50 at 168 h [8]: 1260 mg/kg
CCCCCCCCCCCCCC(=O)OCC[N+](C)(C)Cc1nc(C)c2c(c1CO)COC(C)(C)O2.[Cl-] | 0.5 µg/mL | 2.24 µg/mL | 1.02 µg/mL | 32 µg/mL | 0.88 µg/mL | 1 µg/mL | 1.46 | 1 µg/mL | > 64 µg/mL | 1.6 | 2 µg/mL | 4 µg/mL | > 64 µg/mL | 2.5 | 0.4 | 64 µg/mL | 0.3 | > 64 µg/mL | 32 µg/mL | 64 µg/mL | MIC [22]: 2 µg/mL; MIC [23]: 4 µg/mL; MIC [24]: 4 µg/mL; Ratio [25]: 0.05; MIC [26]: 2 µg/mL; Ratio [27]: 1.8; MIC [28]: 64 µg/mL; Ratio [29]: 0.9; MIC [30]: 64 µg/mL; MIC [31]: 2 µg/mL; MIC [32]: 32 µg/mL; MIC [33]: 64 µg/mL; MIC [34]: > 64 µg/mL; MIC [35]: 2 µg/mL; MIC [36]: 2 µg/mL; MIC [37]: 4 µg/mL; Ratio [38]: 2.1; Ratio [39]: 1.2
CCCCCCCCCCCCCC(=O)OCC[N+](C)(C)Cc1cnc(C)c2c1COC(C)(C)O2.[Cl-] | 1 µg/mL | 1.94 µg/mL | 1.08 µg/mL | 8 µg/mL | 0.17 µg/mL | 0.5 µg/mL | 2.14 | 0.5 µg/mL | 1 µg/mL | 1.6 | 8 µg/mL | 8 µg/mL | > 64 µg/mL | 4.6 | 0.9 | 64 µg/mL | 0.4 | > 64 µg/mL | 64 µg/mL | 64 µg/mL | MIC [22]: 64 µg/mL; MIC [23]: 16 µg/mL; MIC [24]: 8 µg/mL; Ratio [25]: 0.02; MIC [26]: 4 µg/mL; Ratio [27]: 1.6; MIC [28]: 64 µg/mL; Ratio [29]: 0.6; MIC [30]: 64 µg/mL; MIC [31]: 4 µg/mL; MIC [32]: 32 µg/mL; MIC [33]: 64 µg/mL; MIC [34]: 64 µg/mL; MIC [35]: 8 µg/mL; MIC [36]: 8 µg/mL; MIC [37]: 8 µg/mL; Ratio [38]: 1.4; Ratio [39]: 1.2
CCCCCCCCCCCCCC(=O)OCC[N+](C)(C)Cc1cnc(C)c2c1COC(CCC)O2.[Cl-] (configuration not stated) | 4 µg/mL | 2.18 µg/mL | 1.28 µg/mL | 16 µg/mL | 1 µg/mL | 0.5 µg/mL | 2.97 | 0.5 µg/mL | 1 µg/mL | 1.5 | 2 µg/mL | 4 µg/mL | > 64 µg/mL | 4.7 | 0.4 | 64 µg/mL | 0.3 | > 64 µg/mL | 64 µg/mL | 32 µg/mL | MIC [22]: 64 µg/mL; MIC [23]: 4 µg/mL; MIC [24]: 2 µg/mL; Ratio [25]: 0.04; MIC [26]: 4 µg/mL; Ratio [27]: 1.4; MIC [28]: 64 µg/mL; Ratio [29]: 1.3; MIC [30]: 64 µg/mL; MIC [31]: 4 µg/mL; MIC [32]: 32 µg/mL; MIC [33]: > 64 µg/mL; MIC [34]: > 64 µg/mL; MIC [35]: 2 µg/mL; MIC [36]: 2 µg/mL; MIC [37]: 2 µg/mL; Ratio [38]: 1.2; Ratio [39]: 1.5
CCCCCCCCCCCCCC(=O)NCC[N+](C)(C)Cc1cnc(C)c2c1COC(C)(CCC)O2.[Cl-] (configuration not stated) | 2 µg/mL | 2.15 µg/mL | 1.38 µg/mL | 32 µg/mL | 1.16 µg/mL | 1 µg/mL | 2.24 | 1 µg/mL | 8 µg/mL | 1.6 | 2 µg/mL | 2 µg/mL | > 64 µg/mL | 4.4 | 0.5 | 16 µg/mL | 0.3 | > 64 µg/mL | 16 µg/mL | 32 µg/mL | MIC [22]: 8 µg/mL; MIC [23]: 2 µg/mL; MIC [24]: 2 µg/mL; Ratio [25]: 0.03; MIC [26]: 1 µg/mL; Ratio [27]: 1.5; MIC [28]: 32 µg/mL; Ratio [29]: 0.5; MIC [30]: 32 µg/mL; MIC [31]: 1 µg/mL; MIC [32]: 8 µg/mL; MIC [33]: 64 µg/mL; MIC [34]: 64 µg/mL; MIC [35]: 2 µg/mL; MIC [36]: 1 µg/mL; MIC [37]: 2 µg/mL; Ratio [38]: 0.7; Ratio [39]: 0.9
